According to PubChem BioAssay (NCI):
“And” between values parts separate entries of the source, which are not always exact repeats. Equal entries are not always repeated.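 Where inhibition never reached the appropriate level, the endpoint shown equals the highest concentration tested. Otherwise, values were interpolated linearly from a five-concentration, 48-hour dose response in 96-well plates. At the GI50, growth is halved. TGI: total growth inhibition.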

Tests used:
Assay in all cases: inhibition of tumour cell growth, NCI panel, 48 h
786-0 renal = tested on: 786-0 renal
CCRF-CEM leukemia = tested on: CCRF-CEM leukemia
RXF 393 renal = tested on: RXF 393 renal
RPMI-8226 leukemia = tested on: RPMI-8226 leukemia
A498 renal = tested on: A498 renal
SF-268 CNS = tested on: SF-268 CNS
MALME-3M melanoma = tested on: MALME-3M melanoma
SN12C renal = tested on: SN12C renal
MOLT-4 leukemia = tested on: MOLT-4 leukemia
BT-549 breast = tested on: BT-549 breast

| Structure (SMILES) | GI50 (786-0 renal) [µM] | TGI (786-0 renal) [µM] | GI50 (CCRF-CEM leukemia) | TGI (CCRF-CEM leukemia) [µM] | GI50 (RXF 393 renal) [µM] | TGI (RXF 393 renal) [µM] | GI50 (RPMI-8226 leukemia) | TGI (RPMI-8226 leukemia) [µM] | GI50 (A498 renal) [µM] | TGI (A498 renal) [µM] | GI50 (SF-268 CNS) | TGI (SF-268 CNS) [µM] | GI50 (MALME-3M melanoma) [µM] | TGI (MALME-3M melanoma) [µM] | GI50 (SN12C renal) | TGI (SN12C renal) [µM] | GI50 (MOLT-4 leukemia) | TGI (MOLT-4 leukemia) [µM] | GI50 (BT-549 breast) [µM] | TGI (BT-549 breast) [µM] |
| --- | --- | --- | --- | --- | --- | --- | --- | --- | --- | --- | --- | --- | --- | --- | --- | --- | --- | --- | --- | --- |
| Oc1ccc2oc3ncc(Cl)c(-c4ccccc4)c3c2c1 | 0.0939 | > 100 | 21.2 µM | 63.2 | > 100 | > 100 | > 100 µM | > 100 | > 100 | > 100 | > 100 µM | > 100 | > 100 | > 100 | > 100 µM | > 100 | > 100 µM | > 100 |  |  |
| O=C(c1cc(O)ccc1O)c1ccccc1C(Cl)(Cl)Cl |  | > 100 |  | > 100 |  | > 100 |  | > 100 |  | > 100 |  | > 100 |  | > 100 |  | > 100 |  | > 100 |  |  |
| O=C(CC(=O)N1N=C(c2ccccc2)C(N=Nc2ccc(C(=O)O)cc2)C1=O)Nc1ccc(F)cc1 (stereo not drawn) |  | 63 |  |  |  | 25.3 |  | 99 |  | 81.7 |  | > 100 |  | > 100 |  | > 100 |  |  |  |  |
| C=C(CN1CCN(c2ccccc2OC)CC1)c1ccc(C(=O)Nc2ccccc2N)cc1 | 2.45 | 29.1 |  |  |  |  | 5.11 µM | > 50 |  |  | 12.2 µM | 36 |  |  | 0.0129 µM | 0.0874 |  |  | 7.12 | 26.9 |
| Cn1c2c([N+](=O)[O-])[se]nc2c(=O)n1-c1ccc([N+](=O)[O-])cc1 |  | 6.5 |  | > 100 |  | 2.21 |  | 5.51 |  | 23.7 |  | 4.77 |  | 3.23 |  | 3.46 |  |  |  |  |
| CCOC1OCCCC1Br (stereo not drawn) |  | > 100 |  | > 100 |  | > 100 |  | > 100 |  | > 100 |  | > 100 |  | > 100 |  | > 100 |  | > 100 |  |  |
| NCCCCCS(=O)(=O)O |  | > 100 |  | > 100 |  | > 100 |  |  |  | > 100 |  | > 100 |  | > 100 |  | > 100 |  | > 100 |  |  |
| CC#C[C@@]1(O)CCCC[C@@H]1O |  | > 100 |  | > 100 |  | > 100 |  | > 100 |  | > 100 |  | > 100 |  | > 100 |  | > 100 |  | > 100 |  |  |
| OCC(O)C(O)c1nn(-c2ccccc2)c2nc3cc(Cl)c(Cl)cc3nc12 (stereo not drawn) |  | 68.4 |  | > 100 |  | 47.4 |  | > 100 |  |  |  | 80.5 |  | 44.1 |  | > 100 |  | > 100 |  |  |
| COC(=O)C1=C(OC)c2cc3c(cc2C(c2cc(OC)c(OC)c(OC)c2)C1C(=O)OC)OCO3 (stereo not drawn) |  | > 100 |  | > 100 |  | > 100 |  | > 100 |  | > 100 |  | > 100 |  | > 100 |  | > 100 |  | > 100 |  |  |
| Cc1c[nH]c2c1C13CC1CN(C(=O)c1cc4cc(NC(=O)c5cc6ccccc6o5)ccc4[nH]1)C3=CC2=O (stereo not drawn) |  | < 0.001 | > 1.17 ng/mL | 0.0682 |  | < 0.001 | > 1.17 ng/mL |  |  |  | > 1.17 ng/mL | < 0.001 |  | < 0.001 | > 1.17 ng/mL | < 0.001 | > 1.17 ng/mL | 0.0031 |  |  |
| c1ccc2c(CNCCCCCCNCc3cccc4ccccc34)cccc2c1 |  | 26.1 |  | 9.62 |  | 6.9 |  | 6.79 |  | 33.6 |  | 25.7 |  | 3.42 |  | 25.3 |  | 6.46 |  |  |
| O=C1C2c3[nH]c4ccccc4c3[C@@H]3CCCCCCCCCCC3C2C(=O)N1c1ccccc1 (stereo partly drawn) |  | 35.7 |  |  |  | 32.7 |  | > 100 |  |  |  | 48.1 |  |  |  | 54 |  |  |  |  |
| CC1=NNC(=NCCN(C)C)C/C1=C/c1ccccc1Cl |  | > 100 |  |  |  | > 100 |  |  |  | > 100 |  | > 100 |  | > 100 |  | > 100 |  |  |  |  |
| Nc1nc2c(ncn2C2OC(CO)C(O)C2N)c(=O)[nH]1 (stereo not drawn) |  | > 100 |  | > 100 |  |  |  |  |  | > 100 |  | > 100 |  | > 100 |  | > 100 |  | > 100 |  |  |
| S=c1nc(-c2ccccc2)oc(=NC2CCCCC2)n1C1CCCCC1 | 4.46 | 16.2 | 1.75 µM | 8.87 |  |  | 2.69 µM | 6.51 | 3.61 | 13 | 4.72 µM | 17.6 |  |  | 3.94 µM | 18.7 | 1.54 µM | 6.01 |  |  |
| COC(=O)c1c[nH]c(=O)[nH]c1=O |  | > 100 |  | > 100 |  |  |  | > 100 |  |  |  | > 100 |  |  |  | > 100 |  | > 100 |  |  |

| Structure (SMILES) | GI50 (786-0 renal) [µM] | TGI (786-0 renal) [µM] | GI50 (CCRF-CEM leukemia) | TGI (CCRF-CEM leukemia) [µM] | GI50 (RXF 393 renal) [µM] | TGI (RXF 393 renal) [µM] | GI50 (RPMI-8226 leukemia) | TGI (RPMI-8226 leukemia) [µM] | GI50 (A498 renal) [µM] | TGI (A498 renal) [µM] | GI50 (SF-268 CNS) | TGI (SF-268 CNS) [µM] | GI50 (MALME-3M melanoma) [µM] | TGI (MALME-3M melanoma) [µM] | GI50 (SN12C renal) | TGI (SN12C renal) [µM] | GI50 (MOLT-4 leukemia) | TGI (MOLT-4 leukemia) [µM] | GI50 (BT-549 breast) [µM] | TGI (BT-549 breast) [µM] |
| --- | --- | --- | --- | --- | --- | --- | --- | --- | --- | --- | --- | --- | --- | --- | --- | --- | --- | --- | --- | --- |
| N#Cc1cccc(NC(=O)c2ccc(C(=O)O)c(C(=O)c3ccc(C(=O)O)c(C(=O)Nc4cccc(C#N)c4)c3)c2)c1 |  | > 100 |  | > 100 |  | > 100 |  | > 100 |  | > 100 |  | > 100 |  | > 100 |  | > 100 |  | > 100 |  |  |
| Cc1cccc(NC(=O)C(=O)C2C(=O)NC(=O)NC2=O)c1C |  | > 100 |  | > 100 |  | > 100 |  | > 100 |  | > 100 |  | > 100 |  | > 100 |  | > 100 |  | > 100 |  |  |
| COC(=O)C(=O)C1(CCC(C)=O)c2ccccc2-c2ccccc21 |  | > 100 |  | > 100 |  | > 100 |  | > 100 |  | > 100 |  | > 100 |  | > 100 |  | > 100 |  | > 100 |  |  |
| CCOC(=O)C1N(S(=O)(=O)c2ccc(C)cc2)CCC12c1ccccc1N(C(C)=O)C2C(/C=C/C(=O)OC)=C/C(=O)OC (stereo not drawn) |  | > 100 |  | > 100 |  | > 100 |  | > 100 |  | > 100 |  | > 100 |  | > 100 |  | > 100 |  |  |  |  |
| CC(C)[C@@H]1C=C(c2ccccc2)c2ccccc2C1C(C#N)(C#N)C(C)C (stereo partly drawn) |  | > 100 |  | > 100 |  | > 100 |  | > 100 |  | > 100 |  | > 100 |  | > 100 |  | > 100 |  | > 100 |  |  |
| Cc1cc(C)cc(-n2c3nc(=O)n(C)c(=O)c-3nc3ccccc32)c1 |  | > 100 |  | 61 |  | > 100 |  | > 100 |  | > 100 |  | > 100 |  | 30.3 |  | 76.4 |  | 52.4 |  |  |
| Cc1cnc[nH]c1=O |  | > 100 |  | > 100 |  |  |  | > 100 |  | > 100 |  | > 100 |  | > 100 |  | > 100 |  | > 100 |  |  |
| COC(=O)C[CH](C(=O)OC)[Ge]([CH3])([CH3])[S]c1ccccc1 (stereo not drawn) | 15.9 | 30.7 | 1.67 µM | 6.25 | 37.9 | 55.9 | 17.1 µM | 56.7 | 19.7 | 60.9 | 18.7 µM | 64.1 | > 100 | > 100 | 16 µM | 32 | 3.37 µM | 18.4 |  |  |
| N/C(=N\NS(=O)(=O)c1ccccc1)Oc1ccc(Cl)cc1 |  | > 100 |  | > 100 |  | 58.1 |  | > 100 |  | > 100 |  | > 100 |  | > 100 |  | > 100 |  | > 100 |  |  |
| CCCCCCCCCCCC(=O)OCC1OC(n2cc(F)c(=O)[nH]c2=O)C(NC(=O)OCc2ccccc2)C(O)C1O (stereo not drawn) |  | 50.9 |  | 41.7 |  | 73.6 |  | 53.5 |  | 51.4 |  | > 100 |  | 47.9 |  | 34.7 |  | 53.4 |  |  |
| Cc1cc(NS(=O)(=O)c2ccc(Nc3c4ccccc4nc4c(C(=O)Nc5ccc(S(=O)(=O)N=C(N)N)cc5)cccc34)cc2)no1 |  | > 100 |  | > 100 |  | > 100 |  | > 100 |  | > 100 |  | > 100 |  | > 100 |  | > 100 |  | > 100 |  |  |
| C=CN1C(=O)OC(c2ccccc2)C1c1ccccc1 (stereo not drawn) | > 100 | > 100 | > 100 µM | > 100 | > 100 | > 100 | > 31.6 µM and 88.6 µM | > 100 | > 100 | > 100 | > 100 µM | > 100 | > 100 | > 100 | > 100 µM | > 100 | > 100 µM | > 100 |  |  |
| COc1ccc2cccc(C(=O)c3ccc(C)c4c3CCC4)c2c1 |  | 77.7 |  | > 100 |  | 73.5 |  |  |  | 83.7 |  | > 100 |  | 72.8 |  | > 100 |  | 97.2 |  |  |
| Cc1ccc(S(=O)(=O)N(/N=C(\N)Oc2ccc(Cl)cc2)C(=N)Oc2ccc(Cl)cc2)cc1 |  | > 100 |  | > 100 |  | > 100 |  |  |  | > 100 |  | > 100 |  | > 100 |  | > 100 |  | > 100 |  |  |
| CCC1C(C)c2c([nH]c3ccccc23)C2C(=O)N(c3ccccc3)C(=O)C21 (stereo not drawn) |  | 34.5 |  | 71.9 |  | 26 |  | 40.9 |  |  |  | 62.5 |  | 30.4 |  | 26.3 |  | 49.3 |  |  |
| COC(=O)/C=C/C(=O)C1C(C(=O)OC)C2(C(=O)OC)CCC1(C(=O)OC)N2 (stereo not drawn) |  | > 100 |  |  |  | > 100 |  | > 100 |  |  |  | > 100 |  | > 100 |  |  |  | > 100 |  |  |
